# Assay results from ChEMBL document CHEMBL3045406, “Enantioselective Relieving Activity of α-Methylbenzylphenylureas toward Bensulfuron-methyl Injury to Rice (Oryza sativa)” (Biosci Biotechnol Biochem, 1999).
# Assays:
# Oryza sativa [1] = assay: Safener indices, ratio of compound effect of Oryza sativa (rice) growth rate to relieving activity against bensulfuron-methyl induced injury to Oryza sativa growth rate at 1 uM
# Oryza sativa [2] = assay: Relieving activity against bensulfuron-methyl induced injury to Oryza sativa (rice) assessed as growth rate at 10 uM (Rbv = 46 to 53%); assay type: functional
# Oryza sativa [3] = assay: Safener indices, ratio of compound effect of Oryza sativa (rice) growth rate to relieving activity against bensulfuron-methyl induced injury to Oryza sativa growth rate at 10 uM
# [4] = Hydrophobicity, log K of the compound; assay type: physicochemical; settings: octanol/water
# Oryza sativa [5] = assay: Safener indices, ratio of compound effect of Oryza sativa (rice) growth rate to relieving activity against bensulfuron-methyl induced injury to Oryza sativa growth rate at 0.1 uM
# Oryza sativa [6] = assay: Effect on Oryza sativa (rice) assessed as growth rate at 10 uM relative to control; assay type: organism-based; settings: in vivo
# Oryza sativa [7] = assay: Relieving activity against bensulfuron-methyl induced injury to Oryza sativa (rice) assessed as growth rate at 1 uM (Rbv = 46 to 53%); assay type: functional
# Oryza sativa [8] = assay: Effect on Oryza sativa (rice) assessed as growth rate at 0.1 uM relative to control; assay type: organism-based; settings: in vivo
# Oryza sativa [9] = assay: Effect on Oryza sativa (rice) assessed as growth rate at 1 uM relative to control; assay type: organism-based; settings: in vivo
# Oryza sativa [10] = assay: Relieving activity against bensulfuron-methyl induced injury to Oryza sativa (rice) assessed as growth rate at 0.1 uM (Rbv = 46 to 53%); assay type: functional
SMILES,log K [4],Activity (Oryza sativa [6]) [%],Activity (Oryza sativa [8]) [%],Activity (Oryza sativa [9]) [%],Ratio (Oryza sativa [1]),Activity (Oryza sativa [2]) [%],Ratio (Oryza sativa [3]),Ratio (Oryza sativa [5]),Activity (Oryza sativa [7]) [%],Activity (Oryza sativa [10]) [%]
C[C@H](NC(=O)Nc1ccccc1)c1ccccc1,0.28,90,101,98,58,80,63,30,80,67
CCc1ccc(NC(=O)N[C@H](C)c2ccccc2)cc1,0.487,44,95,47,24,47,32,15,43,56
CCc1ccc(NC(=O)N[C@@H](C)c2ccccc2)cc1,0.487,91,99,95,62,84,72,7,80,74
CC(C)c1ccccc1NC(=O)N[C@H](C)c1ccccc1,0.487,17,103,101,3,30,24,-9,48,43
C[C@@H](NC(=O)Nc1ccccc1)c1ccccc1,0.28,79,101,98,36,77,60,7,69,56
Cc1ccccc1NC(=O)N[C@H](C)c1ccccc1,0.337,99,100,100,12,71,42,6,55,52
Cc1ccccc1NC(=O)N[C@@H](C)c1ccccc1,0.337,99,100,99,21,79,58,5,60,52
Cc1ccc(NC(=O)N[C@H](C)c2ccccc2)cc1,0.367,64,100,98,41,63,46,9,70,54
CCc1ccccc1NC(=O)N[C@H](C)c1ccccc1,0.422,92,101,100,8,72,47,1,55,52
CCc1ccccc1NC(=O)N[C@@H](C)c1ccccc1,0.422,95,100,100,12,71,44,1,57,51
Cc1ccc(NC(=O)NC(C)(C)c2ccccc2)cc1 [DAIMURON],0.487,77,99,89,78,79,66,47,88,74

# Now from value to compound, other results behind:
log K [4],Activity (Oryza sativa [6]) [%],Activity (Oryza sativa [8]) [%],Activity (Oryza sativa [9]) [%],SMILES,Ratio (Oryza sativa [1]),Activity (Oryza sativa [2]) [%],Ratio (Oryza sativa [3]),Ratio (Oryza sativa [5]),Activity (Oryza sativa [7]) [%],Activity (Oryza sativa [10]) [%]
0.489,86,100,94,CCc1cccc(NC(=O)N[C@@H](C)c2ccccc2)c1,48,82,68,15,72,58
0.374,47,100,98,Cc1cccc(NC(=O)N[C@H](C)c2ccccc2)c1,22,45,29,10,60,55
0.374,100,99,100,Cc1cccc(NC(=O)N[C@@H](C)c2ccccc2)c1,58,89,79,27,79,63
0.367,100,100,99,Cc1ccc(NC(=O)N[C@@H](C)c2ccccc2)cc1,73,91,82,45,86,72
0.489,36,97,71,CCc1cccc(NC(=O)N[C@H](C)c2ccccc2)c1,36,42,29,8,59,54
